# US11241013B2, “Benzimidazole compounds as agricultural chemicals” (REDAG CROP PROTECTION LTD, priority 2017, dated 2022)
# How the values were obtained:
# [1] = test system: Pythium ultimum; assay: Amended agar assay; type: cell-based; set-up: key to % control Pythium ultimum 2 ppm / % control Pythium ultimum 20 ppm: D: no control detected at this concentration; C: up to 50% control; B: from 50 to 99% control; A: a control of greater than 99%, i.e. no detectable colony growth; conditions: amended PDA agar, 2 ppm, % reduction in colony growth vs control plate, 18° C.; for inhibition of growth at 2 ppm: Globisporangium ultimum
# Procedure: Testing was carried out on potato dextrose agar (PDA) amended with each compound at a test concentration of typically 20 ppm or 2 ppm. Amended agar was poured into three replicate 9 cm petri dishes. Each replicate dish was inoculated in the centre with a 5 mm agar plug taken from the leading edge of a culture aged between 2 and 7 days old; the age of the culture was dependant on the growth rate of the pathogen being tested. The test pathogens were Pythium ultimum and Phytophthora cinnamomi. Plates were incubated at 18° C. and the diameter of each colony measured before growth on the fastest growing plate reached the plate edge. This varied between 2 and 7 days depending on the growth rate of test pathogens. The % reduction in colony growth compared to the control plate was calculated for each pathogen. The results are provided in Table 1, in which D represents no control detected at this concentration; C represents up to 50% control; B from 50 to 99% control; and A represents a control of greater than 99%, i.e. no detectable colony growth.
# Alternatively, or in addition, the same assay was conducted at descending test concentrations with 5-fold dilutions typically down to 0.032 ppm though sometimes as low as 0.00026 ppm, and an EC50 (the concentration at which 50% control would be achieved) was determined. The results are provided in Table 1 in which G represents no control detected at 20 ppm, F represents an EC50 of ≥20 ppm and E represents an EC50 of less than 20 ppm.
# [2] = test system: Phytophthora cactorum; assay: 96 well plate test; type: cell-based; conditions: 96 well plate assay, agar amended to 20, 2, 0.2 and 0.02 ppm, assessed after 2 to 3 days, read-out: EC50 Phytophthora spp. (Phytophthora cactorum)
# Procedure: Compounds were screened in 96 well plates with 10 compounds per plate. Each compound was screened using agar amended to 20, 2, 0.2 and 0.02 ppm, with proline at 50 and 10 ppm and 0.2% DMSO used as controls. Each test concentration and standard was replicated twice on a plate. Compounds were screened against Phytophthora cactorum. The agar used in the test is a 1% potato dextrose agar. 1000 spores/mL agar were added to the appropriate agar. A ×10 stock solution in 2% DMSO was produced for each dose i.e. 200, 20, 2 and 0.2 ppm, and 10 μl of this added to the appropriate wells on the plate. An equivalent amount of 2% DMSO and proline stock at 500 and 100 ppm were added for the controls. To each well 90 μl of the appropriate agar spore suspension was added to give the required final well concentrations. Plates were incubated at room temperature (18° C.) and assessed after 2 to 3 days. The amount of pathogen growth in each well was compared to the DMSO controls and an EC50 concentration was calculated. The results are provided in Table 1 in which H represents no control detected at 20 ppm, G represents no control detected at 2 ppm (where the highest test concentration in the assay was 2 ppm), F represents an EC50 of ≥20 ppm, E represents an EC50 of less than 20 ppm.
Compound,inhibition of growth at 2 ppm [1] [%],EC50 [2] [µg/mL],% control Pythium ultimum 2 ppm [1]
Cn1nnnc1-n1c(OCc2cccc(NCc3ccccc3Cl)n2)nc2ccccc21 [Example 92],> 99,< 20,
Cn1ccc(CNc2cccc(COc3nc4ccccc4n3-c3nnnn3C)n2)n1 [Example 45],> 99,< 20,
"Cn1nnnc1-n1c(OCc2cc(N)ccn2)nc2ccccc21 [Example 108, 2-(((1-(1-Methyl-1H-tetrazol-5-yl)-1H-benzo[d]imidazol-2-yl)oxy)methyl)pyridin-4-amine]",,≥ 20,D
Cn1nnnc1-n1c(OCc2cccc(NCCc3ccccc3)n2)nc2ccccc21 [Example 39],> 99,< 20,
Cn1nnnc1-n1c(OCc2cccc(NCc3ccccc3)n2)nc2c(Cl)cccc21 [Example 89],> 99,< 20,
Cn1nnnc1-n1c(OCc2ccc3ccccc3n2)nc2ccccc21 [Example 65],50 to 99,≥ 20,
Cn1nnnc1-n1c(OCc2cccc(NCc3ccco3)n2)nc2ccccc21 [Example 44],> 99,< 20,
Cc1cccc(CNc2cccc(COc3nc4c(Cl)cccc4n3-c3nnnn3C)n2)c1 [Example 101],50 to 99,< 20,
Cn1nnnc1-n1c(OCc2nc3ccccc3s2)nc2c(Br)cccc21 [Example 104],> 99,< 20,
Cn1nnnc1-n1c(OCc2cc([N+](=O)[O-])ccn2)nc2c(Cl)cccc21 [Example 69],50 to 99,≥ 20,
CCCOc1ccnc(COc2nc3ccccc3n2-c2nnnn2C)c1 [Example 77],> 99,< 20,
Cn1nnnc1-n1c(OCc2cccc(NCCCc3ccccc3)n2)nc2ccccc21 [Example 38],> 99,< 20,
Cn1nnnc1-n1c(OCc2nc3ccccc3s2)nc2c(Cl)cccc21 [Example 70],> 99,< 20,
COCCCOc1ccnc(COc2nc3c(Cl)cccc3n2-c2nnnn2C)c1C [Example 62],> 99,< 20,
Cn1nnnc1-n1c(OCc2nc3ccccc3n2C)nc2ccccc21 [Example 64],> 99,< 20,
CC(C)CCCNc1cccc(COc2nc3ccccc3n2-c2nnnn2C)n1 [Example 51],> 99,< 20,
Cn1nnnc1-n1c(OCc2cccc(NCC3CCCC3)n2)nc2ccccc21 [Example 80],> 99,< 20,
Cn1nnnc1-n1c(OCc2cccc(NCC3CC3)n2)nc2c(F)cccc21 [Example 91],> 99,< 20,
Cn1nnnc1-n1c(OCc2cccc(CO)n2)nc2c(Cl)cccc21 [Example 71],,≥ 20,D
CCNc1cccc(COc2nc3ccccc3n2-c2nnnn2C)n1 [Example 36],> 99,< 20,
COc1c(C)cnc(COc2nc3ccccc3n2-c2ncncc2Cl)c1C [Example 24],50 to 99,< 20,
Cc1cccc(CNc2cccc(COc3nc4c(Br)cccc4n3-c3nnnn3C)n2)c1 [Example 102],50 to 99,< 20,
Cn1nnnc1-n1c(OCc2ccncn2)nc2ccccc21 [Example 7],> 99,< 20,
CCCCNc1cccc(COc2nc3ccccc3n2-c2nnnn2C)n1 [Example 43],> 99,< 20,
CC(C)CCCNc1cccc(COc2nc3c(Cl)cccc3n2-c2nnnn2C)n1 [Example 63],> 99,< 20,
Clc1cncnc1-n1c(OCc2nccs2)nc2ccccc21 [Example 23],50 to 99,≥ 20,
Cn1nnnc1-n1c(OCc2cccc(NCc3cccc(C(F)(F)F)c3)n2)nc2ccccc21 [Example 97],> 99,< 20,
